# Source: ChEMBL document CHEMBL1201862, “PubChem BioAssay data set” (2004)
# Active and inactive are the calls of the source.
# How the values were obtained:
# [1] = biological target: Serine/threonine-protein kinase pim-1 (Homo sapiens, UniProt P11309); assay type: functional
# [2] = biological target: RAC-gamma serine/threonine-protein kinase (Homo sapiens, UniProt Q9Y243); assay type: functional
# [3] = biological target: Dual specificity protein kinase CLK4 (Homo sapiens, UniProt Q9HAZ1); assay type: functional
# [4] = biological target: Aurora kinase A (Homo sapiens, UniProt O14965); assay type: functional;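 note: value from the Navigating the Kinome kinase panel profiling, panel entry STK6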
# [5] = biological target: Serine/threonine-protein kinase D3 (Homo sapiens, UniProt O94806); assay type: functional;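 note: determined within a kinase panel screen, with PRKCN as the panel member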
# Sequence of Serine/threonine-protein kinase D3 (O94806 whole entry): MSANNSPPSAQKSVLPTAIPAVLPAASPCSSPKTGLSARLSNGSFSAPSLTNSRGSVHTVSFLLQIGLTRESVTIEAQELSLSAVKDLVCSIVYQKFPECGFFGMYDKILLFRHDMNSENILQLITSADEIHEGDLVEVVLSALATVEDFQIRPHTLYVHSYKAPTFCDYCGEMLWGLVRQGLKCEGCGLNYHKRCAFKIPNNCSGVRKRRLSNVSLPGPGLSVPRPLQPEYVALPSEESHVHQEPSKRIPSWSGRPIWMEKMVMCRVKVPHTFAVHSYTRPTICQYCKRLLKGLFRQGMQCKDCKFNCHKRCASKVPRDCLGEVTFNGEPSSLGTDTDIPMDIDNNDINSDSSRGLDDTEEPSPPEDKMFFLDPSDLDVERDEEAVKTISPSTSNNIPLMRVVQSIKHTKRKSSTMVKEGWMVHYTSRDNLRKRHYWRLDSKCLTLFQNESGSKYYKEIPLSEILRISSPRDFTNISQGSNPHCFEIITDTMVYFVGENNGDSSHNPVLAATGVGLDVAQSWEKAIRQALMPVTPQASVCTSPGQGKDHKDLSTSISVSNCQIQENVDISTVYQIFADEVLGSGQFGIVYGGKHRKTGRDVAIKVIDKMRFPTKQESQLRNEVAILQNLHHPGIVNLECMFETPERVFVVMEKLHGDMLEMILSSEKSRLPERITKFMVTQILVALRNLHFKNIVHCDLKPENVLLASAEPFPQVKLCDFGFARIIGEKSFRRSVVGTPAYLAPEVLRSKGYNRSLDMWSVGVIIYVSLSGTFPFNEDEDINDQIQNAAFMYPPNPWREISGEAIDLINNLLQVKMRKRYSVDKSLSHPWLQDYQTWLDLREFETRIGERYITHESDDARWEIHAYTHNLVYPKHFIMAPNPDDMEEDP
# [6] = biological target: Rho-associated protein kinase 1 (Homo sapiens, UniProt Q13464); assay type: functional;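 note: measured within a broad kinome-wide panel profiling many kinases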
# [7] = biological target: cAMP-dependent protein kinase catalytic subunit PRKX (Homo sapiens, UniProt P51817); assay type: functional
# [8] = biological target: High affinity nerve growth factor receptor (Homo sapiens, UniProt P04629); assay type: functional;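 note: NTRK1 tested as one member of a kinome-wide profiling panel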
# Sequence of High affinity nerve growth factor receptor (P04629 whole entry): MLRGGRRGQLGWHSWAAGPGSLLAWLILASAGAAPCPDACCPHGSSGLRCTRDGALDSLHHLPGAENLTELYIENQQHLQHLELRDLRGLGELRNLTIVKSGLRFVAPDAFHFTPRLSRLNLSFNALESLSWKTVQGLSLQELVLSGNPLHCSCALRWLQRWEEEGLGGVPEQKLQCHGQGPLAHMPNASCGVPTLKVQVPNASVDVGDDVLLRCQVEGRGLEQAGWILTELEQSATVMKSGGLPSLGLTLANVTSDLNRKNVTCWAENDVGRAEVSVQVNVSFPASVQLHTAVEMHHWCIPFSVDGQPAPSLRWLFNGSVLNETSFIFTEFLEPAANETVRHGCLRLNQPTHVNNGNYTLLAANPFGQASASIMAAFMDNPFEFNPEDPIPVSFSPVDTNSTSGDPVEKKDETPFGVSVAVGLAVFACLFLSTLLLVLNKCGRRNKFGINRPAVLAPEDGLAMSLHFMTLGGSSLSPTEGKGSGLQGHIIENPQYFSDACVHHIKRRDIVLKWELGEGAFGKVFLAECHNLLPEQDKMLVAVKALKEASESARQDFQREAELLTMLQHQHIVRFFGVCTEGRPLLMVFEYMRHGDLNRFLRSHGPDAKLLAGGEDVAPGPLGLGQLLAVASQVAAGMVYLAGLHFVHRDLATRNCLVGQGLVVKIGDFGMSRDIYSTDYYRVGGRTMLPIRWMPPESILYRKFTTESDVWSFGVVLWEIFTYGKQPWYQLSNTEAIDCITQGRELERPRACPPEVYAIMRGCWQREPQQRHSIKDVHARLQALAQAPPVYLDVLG
# [9] = biological target: Cyclin-dependent kinase 9 (Homo sapiens, UniProt P50750); assay type: functional;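 note: value from the CDK9 entry of a kinome-spanning kinase panel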
# [10] = biological target: Dual specificity protein kinase CLK2 (Homo sapiens, UniProt P49760); assay type: functional
# [11] = biological target: LIM domain kinase 1 (Homo sapiens, UniProt P53667); assay: Navigating the Kinome. Panel member name: LIMK1; assay type: functional
# [12] = biological target: Activated CDC42 kinase 1 (Homo sapiens, UniProt Q07912); assay: Navigating the Kinome. Panel member name: ACK1; assay type: functional
# [13] = biological target: Cyclin-dependent kinase 8 (Homo sapiens, UniProt P49336); assay: Navigating the Kinome. Panel member name: CDK8; assay type: functional
# [14] = biological target: Tyrosine-protein kinase receptor TYRO3 (Homo sapiens, UniProt Q06418); assay type: functional;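 note: TYRO3 value obtained as one member of a kinome-wide profiling panel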
# [15] = biological target: Platelet-derived growth factor receptor beta (Homo sapiens, UniProt P09619); assay type: functional;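 note: value comes from a kinome panel, with PDGFRB tested as one panel member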
# [16] = biological target: Mitogen-activated protein kinase 8 (Homo sapiens, UniProt P45983); assay type: functional;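 note: value comes from one member of a kinome-wide kinase profiling panel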
# Sequence of Mitogen-activated protein kinase 8 (P45983 whole entry): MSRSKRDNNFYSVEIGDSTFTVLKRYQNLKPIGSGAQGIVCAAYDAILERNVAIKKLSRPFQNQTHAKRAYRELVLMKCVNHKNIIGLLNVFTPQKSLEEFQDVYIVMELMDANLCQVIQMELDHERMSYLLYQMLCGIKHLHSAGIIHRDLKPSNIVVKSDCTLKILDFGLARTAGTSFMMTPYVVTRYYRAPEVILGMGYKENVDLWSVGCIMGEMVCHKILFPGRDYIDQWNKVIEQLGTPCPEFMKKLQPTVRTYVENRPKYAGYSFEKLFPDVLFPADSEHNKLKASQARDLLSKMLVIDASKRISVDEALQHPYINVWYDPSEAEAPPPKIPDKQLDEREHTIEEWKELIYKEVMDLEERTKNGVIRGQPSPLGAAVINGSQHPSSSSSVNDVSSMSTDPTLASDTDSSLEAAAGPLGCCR
# [17] = biological target: Serine/threonine-protein kinase PLK1 (Homo sapiens, UniProt P53350); assay type: functional;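 note: PLK1 measured as one member of a kinome-wide profiling panel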
# [18] = biological target: RAC-alpha serine/threonine-protein kinase (Homo sapiens, UniProt P31749); assay type: functional;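 note: AKT1 affinity measured as one member of a kinome-wide kinase profiling panel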
# Sequence of RAC-alpha serine/threonine-protein kinase (P31749 whole entry): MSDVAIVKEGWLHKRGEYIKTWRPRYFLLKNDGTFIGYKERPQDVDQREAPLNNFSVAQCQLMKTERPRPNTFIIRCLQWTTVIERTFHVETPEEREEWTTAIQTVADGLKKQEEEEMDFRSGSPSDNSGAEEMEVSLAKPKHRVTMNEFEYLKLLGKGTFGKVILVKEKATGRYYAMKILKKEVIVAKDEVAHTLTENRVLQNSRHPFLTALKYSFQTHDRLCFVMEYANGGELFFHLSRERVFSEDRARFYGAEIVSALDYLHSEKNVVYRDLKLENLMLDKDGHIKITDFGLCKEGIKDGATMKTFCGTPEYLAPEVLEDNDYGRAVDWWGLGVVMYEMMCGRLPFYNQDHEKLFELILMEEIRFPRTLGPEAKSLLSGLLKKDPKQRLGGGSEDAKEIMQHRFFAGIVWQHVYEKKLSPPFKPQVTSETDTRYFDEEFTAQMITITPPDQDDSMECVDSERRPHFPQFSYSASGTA
# [19] = biological target: Leukocyte tyrosine kinase receptor (Homo sapiens, UniProt P29376); assay: Navigating the Kinome. Panel member name: LTK; assay type: functional
# [20] = biological target: Death-associated protein kinase 3 (Homo sapiens, UniProt O43293); assay type: functional;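 note: measured as one member of a kinome-wide profiling panel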
# [21] = biological target: Aurora kinase B (Homo sapiens, UniProt Q96GD4); assay type: functional
# [22] = biological target: Inhibitor of nuclear factor kappa-B kinase subunit epsilon (Homo sapiens, UniProt Q14164); assay: Navigating the Kinome. Panel member name: IKBKE; assay type: functional
# [23] = biological target: 5'-AMP-activated protein kinase catalytic subunit alpha-1 (Homo sapiens, UniProt Q13131); assay type: functional
# [24] = biological target: Mitogen-activated protein kinase kinase kinase kinase 4 (Homo sapiens, UniProt O95819); assay type: functional
# [25] = biological target: Dual specificity tyrosine-phosphorylation-regulated kinase 1A (Homo sapiens, UniProt Q13627); assay type: functional;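 note: measured against DYRK1A as one member of a broad kinome profiling panel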
# [26] = biological target: Vascular endothelial growth factor receptor 2 (Homo sapiens, UniProt P35968); assay type: functional
# [27] = biological target: Serine/threonine-protein kinase PLK3 (Homo sapiens, UniProt Q9H4B4); assay type: functional
# [28] = biological target: Leucine-rich repeat serine/threonine-protein kinase 2 (Homo sapiens, UniProt Q5S007); assay type: functional;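 note: value from a broad kinome-wide panel profiling study in which LRRK2 was one of the kinases tested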
# [29] = biological target: Calcium/calmodulin-dependent protein kinase type II subunit alpha (Homo sapiens, UniProt Q9UQM7); assay: Navigating the Kinome. Panel member name: CAMK2A; assay type: functional
# [30] = biological target: Dual specificity tyrosine-phosphorylation-regulated kinase 1B (Homo sapiens, UniProt Q9Y463); assay: Navigating the Kinome. Panel member name: DYRK1B; assay type: functional
# Sequence of Dual specificity tyrosine-phosphorylation-regulated kinase 1B (Q9Y463 whole entry): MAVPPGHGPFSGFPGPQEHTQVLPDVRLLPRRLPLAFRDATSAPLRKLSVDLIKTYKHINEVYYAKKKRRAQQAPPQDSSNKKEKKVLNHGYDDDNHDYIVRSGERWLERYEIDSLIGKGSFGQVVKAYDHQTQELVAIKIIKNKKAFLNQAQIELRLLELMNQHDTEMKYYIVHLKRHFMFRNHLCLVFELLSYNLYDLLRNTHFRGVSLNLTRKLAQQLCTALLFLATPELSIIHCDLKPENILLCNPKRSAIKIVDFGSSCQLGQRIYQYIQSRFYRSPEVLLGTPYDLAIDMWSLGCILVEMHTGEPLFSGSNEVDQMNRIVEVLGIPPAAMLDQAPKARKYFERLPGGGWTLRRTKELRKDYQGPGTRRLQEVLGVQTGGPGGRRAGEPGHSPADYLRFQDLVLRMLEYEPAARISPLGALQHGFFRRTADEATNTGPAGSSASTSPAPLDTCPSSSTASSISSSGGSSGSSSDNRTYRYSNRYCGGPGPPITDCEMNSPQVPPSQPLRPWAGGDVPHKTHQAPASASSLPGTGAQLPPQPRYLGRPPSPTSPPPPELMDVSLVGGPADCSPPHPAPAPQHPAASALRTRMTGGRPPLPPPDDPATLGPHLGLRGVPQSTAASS
# [31] = biological target: Serine/threonine-protein kinase Nek2 (Homo sapiens, UniProt P51955); assay type: functional
# [32] = biological target: Activin receptor type-1 (Homo sapiens, UniProt Q04771); assay: Navigating the Kinome. Panel member name: ACVR1; assay type: functional
# [33] = biological target: Fibroblast growth factor receptor 1 (Homo sapiens, UniProt P11362); assay type: functional
# Sequence of Fibroblast growth factor receptor 1 (P11362 whole entry): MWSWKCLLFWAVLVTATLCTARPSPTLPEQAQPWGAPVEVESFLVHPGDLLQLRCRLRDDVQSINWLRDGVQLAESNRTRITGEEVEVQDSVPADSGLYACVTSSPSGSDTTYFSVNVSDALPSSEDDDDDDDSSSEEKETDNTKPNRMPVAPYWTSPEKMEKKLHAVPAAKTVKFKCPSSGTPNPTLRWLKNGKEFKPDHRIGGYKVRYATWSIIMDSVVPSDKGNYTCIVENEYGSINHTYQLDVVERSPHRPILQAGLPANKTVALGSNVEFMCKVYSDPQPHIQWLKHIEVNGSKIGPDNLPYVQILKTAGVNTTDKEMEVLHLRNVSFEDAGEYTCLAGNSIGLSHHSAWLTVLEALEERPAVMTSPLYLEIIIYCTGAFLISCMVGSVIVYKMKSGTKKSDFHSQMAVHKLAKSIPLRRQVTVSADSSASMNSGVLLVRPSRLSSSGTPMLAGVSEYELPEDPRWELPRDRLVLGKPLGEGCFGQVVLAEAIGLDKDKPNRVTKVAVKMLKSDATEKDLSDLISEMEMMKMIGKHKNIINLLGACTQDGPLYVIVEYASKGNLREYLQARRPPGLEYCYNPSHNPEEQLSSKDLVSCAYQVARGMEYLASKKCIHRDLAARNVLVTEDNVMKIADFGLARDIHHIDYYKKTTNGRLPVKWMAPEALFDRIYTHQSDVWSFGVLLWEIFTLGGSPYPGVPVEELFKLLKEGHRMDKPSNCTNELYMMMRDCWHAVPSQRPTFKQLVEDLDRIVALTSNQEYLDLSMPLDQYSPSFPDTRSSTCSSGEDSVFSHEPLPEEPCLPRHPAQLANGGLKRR
# [34] = biological target: Serine/threonine-protein kinase pim-3 (Homo sapiens, UniProt Q86V86); assay type: functional;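 note: value obtained as one member of a broad kinase panel profiling effort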
# [35] = biological target: Cyclin-dependent kinase 7 (Homo sapiens, UniProt P50613); assay type: functional;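 note: value comes from a kinome-wide kinase profiling panel in which CDK7 is one member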
# [36] = biological target: Macrophage colony-stimulating factor 1 receptor (Homo sapiens, UniProt P07333); assay type: functional;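 note: value comes from the Navigating the Kinome screening panel, CSF1R member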
# [37] = biological target: Protein kinase C theta type (Homo sapiens, UniProt Q04759); assay: Navigating the Kinome. Panel member name: PRKCQ; assay type: functional
# [38] = biological target: cAMP-dependent protein kinase catalytic subunit alpha (Homo sapiens, UniProt P17612); assay type: functional
# [39] = biological target: Platelet-derived growth factor receptor alpha (Homo sapiens, UniProt P16234); assay: Navigating the Kinome. Panel member name: PDGFRA; assay type: functional
# [40] = biological target: Glycogen synthase kinase-3 beta (Homo sapiens, UniProt P49841); assay type: functional;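 note: value comes from a broad kinome profiling panel, with GSK3B as the panel member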
# [41] = biological target: Receptor-type tyrosine-protein kinase FLT3 (Homo sapiens, UniProt P36888); assay type: functional;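 note: FLT3 was tested as one member of a kinome-wide kinase panel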
# [42] = biological target: Cyclin-dependent kinase 19 (Homo sapiens, UniProt Q9BWU1); assay: Navigating the Kinome. Panel member name: CDC2L6; assay type: functional
# [43] = biological target: ALK tyrosine kinase receptor (Homo sapiens, UniProt Q9UM73); assay type: functional;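 note: ALK tested as one member of a kinase panel screen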
# [44] = biological target: Hepatocyte growth factor receptor (Homo sapiens, UniProt P08581); assay type: functional;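 note: kinase panel profiling across the kinome, with MET as the panel member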
# [45] = biological target: Mothers against decapentaplegic homolog 3 (Homo sapiens, UniProt P84022); assay: SMAD3 transcription factor inhibitors, dose response (AID 715); assay type: functional
# [46] = biological target: T1, Estrogen receptor beta (Homo sapiens, UniProt Q92731); assay: ERβ–SRC-3 coactivator interaction inhibitors, confirmation, orthogonal assay, biochemical, ELISA, streptavidin-HRP readout (AID 1060)
# T1 sequence (Q92731 whole entry): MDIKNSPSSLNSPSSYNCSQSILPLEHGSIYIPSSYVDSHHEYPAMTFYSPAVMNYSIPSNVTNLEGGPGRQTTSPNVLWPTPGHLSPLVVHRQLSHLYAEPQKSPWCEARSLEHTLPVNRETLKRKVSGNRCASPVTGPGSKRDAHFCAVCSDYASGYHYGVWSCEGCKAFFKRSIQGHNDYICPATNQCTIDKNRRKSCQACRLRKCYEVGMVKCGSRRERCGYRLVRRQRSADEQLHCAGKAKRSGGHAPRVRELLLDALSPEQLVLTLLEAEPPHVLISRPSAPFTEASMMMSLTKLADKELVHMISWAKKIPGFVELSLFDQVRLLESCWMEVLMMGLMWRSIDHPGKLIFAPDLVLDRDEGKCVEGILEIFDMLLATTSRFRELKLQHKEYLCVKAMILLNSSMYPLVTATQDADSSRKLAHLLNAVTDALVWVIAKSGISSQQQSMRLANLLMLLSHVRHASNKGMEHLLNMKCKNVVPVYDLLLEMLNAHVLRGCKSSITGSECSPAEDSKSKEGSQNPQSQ
# [47] = inhibitors of SNCA 5'UTR-driven reporter translation, confirmation, H4 neuroglioma cells, luminescence (AID 1988); assay type: functional, cell-based
# [48] = test system: HEK293; assay: cells; settings: Homo sapiens
# [49] = HEK293T cell cytotoxicity, dose response, cytotoxicity control for HIV Vif inhibitor project, cherry-picks (AID 652208); assay type: functional, cell-based
# [50] = test system: HEK293; assay: cells; settings: Homo sapiens; remark: listed apart in the source
# [51] = biological target: Photoreceptor-specific nuclear receptor (Homo sapiens, UniProt Q9Y5X4); assay: NR2E3 inverse agonists, dose response, biochemical, TR-FRET (AID 463256); assay type: functional
# [52] = biological target: T2, Apoptotic protease-activating factor 1 (Homo sapiens, UniProt O14727); assay type: functional
# T2 sequence (O14727 whole entry): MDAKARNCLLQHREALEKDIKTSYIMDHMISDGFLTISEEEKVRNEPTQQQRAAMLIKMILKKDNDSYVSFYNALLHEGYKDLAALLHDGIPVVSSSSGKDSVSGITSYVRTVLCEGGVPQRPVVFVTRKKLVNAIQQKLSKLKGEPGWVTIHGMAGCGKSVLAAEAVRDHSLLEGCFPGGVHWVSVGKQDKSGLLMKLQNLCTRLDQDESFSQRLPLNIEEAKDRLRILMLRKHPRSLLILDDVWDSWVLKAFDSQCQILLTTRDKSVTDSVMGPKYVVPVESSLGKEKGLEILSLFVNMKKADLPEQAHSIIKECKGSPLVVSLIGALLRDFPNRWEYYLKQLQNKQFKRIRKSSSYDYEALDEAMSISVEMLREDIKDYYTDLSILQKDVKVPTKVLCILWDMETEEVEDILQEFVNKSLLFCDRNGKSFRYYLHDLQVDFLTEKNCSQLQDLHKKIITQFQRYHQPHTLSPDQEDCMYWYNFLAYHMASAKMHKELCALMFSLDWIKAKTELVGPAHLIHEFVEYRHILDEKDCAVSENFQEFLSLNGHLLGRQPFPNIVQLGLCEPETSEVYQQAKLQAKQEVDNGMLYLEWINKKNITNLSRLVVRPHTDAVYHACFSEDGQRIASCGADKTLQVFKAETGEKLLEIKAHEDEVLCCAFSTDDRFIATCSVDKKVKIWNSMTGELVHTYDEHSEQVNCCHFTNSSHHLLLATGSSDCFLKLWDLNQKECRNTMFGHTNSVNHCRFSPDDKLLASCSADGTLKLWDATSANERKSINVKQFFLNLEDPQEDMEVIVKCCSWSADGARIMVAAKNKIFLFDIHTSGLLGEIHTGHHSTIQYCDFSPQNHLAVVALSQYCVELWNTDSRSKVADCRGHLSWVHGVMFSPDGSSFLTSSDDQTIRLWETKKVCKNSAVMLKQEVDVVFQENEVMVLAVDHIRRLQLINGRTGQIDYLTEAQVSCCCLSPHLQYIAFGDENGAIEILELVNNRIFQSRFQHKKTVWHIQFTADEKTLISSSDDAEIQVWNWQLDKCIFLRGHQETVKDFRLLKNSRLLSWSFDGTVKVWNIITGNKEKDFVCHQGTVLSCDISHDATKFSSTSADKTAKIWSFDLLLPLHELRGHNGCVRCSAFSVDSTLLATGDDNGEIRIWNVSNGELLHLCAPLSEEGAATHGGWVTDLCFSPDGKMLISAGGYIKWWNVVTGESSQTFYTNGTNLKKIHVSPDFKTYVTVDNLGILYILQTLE
# [53] = Luminescence Cell-Based Dose Response HTS to Identify Inhibitors of 5'UTR Stem-Loop Driven Prion Protein mRNA Translation in H4 Neuroglioblastoma Cells. [Related pubchem assays: 1827 (Project Summary), 1813 (Primary HTS)]; assay type: functional
# [54] = biological target: Protein-tyrosine kinase 2-beta (Homo sapiens, UniProt Q14289);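 note: potency of inhibitors of PYK2 kinase phosphorylation of poly-GT substrate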
# [55] = biological target: Peroxisome proliferator-activated receptor gamma/Nuclear receptor corepressor 2 (Homo sapiens, UniProt P37231+Q9Y618); assay: Counterscreen for NR2E3 inverse agonists: TR-FRET-based biochemical high throughput dose response assay to identify inverse agonists of the interaction between peroxisome proliferator-activated receptor gamma (PPARg) and nuclear receptor co-repressor 2 (NCOR2).; assay type: functional
# [56] = biological target: T1, Estrogen receptor beta
# [57] = biological target: T2, Apoptotic protease-activating factor 1; assay: SAR analysis of small molecule inhibitors of Apaf-1 in a Fluorescent assay.; assay type: functional; settings: read-out: IC50_Mean
# [58] = inhibitors of firefly luciferase expression or activity, dose response, H4 neuroglioma cells, luminescence (AID 1990); assay type: functional, cell-based
# Sequence of Serine/threonine-protein kinase pim-1 (P11309 whole entry): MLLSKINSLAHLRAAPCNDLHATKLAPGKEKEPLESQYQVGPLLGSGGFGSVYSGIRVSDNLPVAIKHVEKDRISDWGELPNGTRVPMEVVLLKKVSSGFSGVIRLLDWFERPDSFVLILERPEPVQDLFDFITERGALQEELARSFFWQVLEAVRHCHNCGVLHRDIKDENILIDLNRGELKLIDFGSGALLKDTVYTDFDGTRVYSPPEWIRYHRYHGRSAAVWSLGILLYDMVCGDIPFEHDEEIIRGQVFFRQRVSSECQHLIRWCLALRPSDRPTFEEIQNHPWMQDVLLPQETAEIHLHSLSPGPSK
smiles,measurement,setting,value
Nc1n[nH]c2nc(Cl)sc12,Ki,[1],> 63.1 µM (inactive)
same,Ki,[2],> 100 µM (inactive)
same,Ki,[3],5.01 µM (active)
same,Ki,[4],25.1 µM (active)
same,Ki,[5],63.1 µM (active)
same,Ki,[6],39.8 µM (active)
same,Ki,[7],50.1 µM (active)
same,Ki,[8],25.1 µM (active)
same,Ki,[9],12.6 µM (active)
same,Ki,[10],39.8 µM (active)
same,Ki,[11],12.6 µM (active)
same,Ki,[12],79.4 µM (active)
same,Ki,[13],15.8 µM (active)
same,Ki,[14],50.1 µM (active)
same,Ki,[15],> 79.4 µM (inactive)
same,Ki,[16],63.1 µM (active)
same,Ki,[17],> 79.4 µM (inactive)
same,Ki,[18],> 79.4 µM (inactive)
same,Ki,[19],15.8 µM (active)
same,Ki,[20],31.6 µM (active)
same,Ki,[21],50.1 µM (active)
same,Ki,[22],39.8 µM (active)
same,Ki,[23],39.8 µM (active)
same,Ki,[24],50.1 µM (active)
same,Ki,[25],6.31 µM (active)
same,Ki,[26],> 100 µM (inactive)
same,Ki,[27],> 79.4 µM (inactive)
same,Ki,[28],15.8 µM (active)
same,Ki,[29],63.1 µM (active)
same,Ki,[30],15.8 µM (active)
same,Ki,[31],20 µM (active)
same,Ki,[32],6.31 µM (active)
same,Ki,[33],> 63.1 µM (inactive)
same,Ki,[34],39.8 µM (active)
same,Ki,[35],39.8 µM (active)
same,Ki,[36],> 63.1 µM (inactive)
same,Ki,[37],79.4 µM (active)
same,Ki,[38],31.6 µM (active)
same,Ki,[39],50.1 µM (active)
CS(=O)(=O)c1cccc(-c2cnn3c(C(N)=O)cc(-c4ccccc4)nc23)c1,Ki,[1],3.98 µM (active)
same,Ki,[40],1.26 µM (active)
same,Ki,[41],2.51 µM (active)
same,Ki,[8],2 µM (active)
same,Ki,[16],3.98 µM (active)
same,Ki,[42],> 100 µM (inactive)
same,Ki,[43],5.01 µM (active)
same,Ki,[30],2 µM (active)
same,Ki,[33],2 µM (active)
same,Ki,[44],2.51 µM (active)
O=C(Nc1ccc(-c2nc3cc(NC(=O)c4cccs4)ccc3[nH]2)cc1)c1cccs1,IC50,[45],64.4 µM (not active)
same,IC50,[46],> 109 µM (not active)
same,EC50,[47],0.275 µM (active)
same,EC50,[48],> 59.6 µM (inactive)
same,AC50,[49],23.1 µM (active)
same,EC50,[50],> 59.6 µM (inactive)
same,IC50,[51],9.36 µM (active)
same,IC50,[52],8.21 µM (active)
same,EC50,[53],40.1 µM (active)
same,IC50,[54],3.97 µM (active)
same,IC50,[55],10.5 µM (not active)
same,IC50,[56],2.61 µM (active)
same,IC50,[57],8.37 µM (active)
same,EC50,[58],0.225 µM (active)
